In patent US20230339886A1 (University of Florida Research Foundation, Incorporated, priority 2020, published 2023) one finds EC50 data, which are given here for 34 compounds.

The target of the first experiment is T1, REV-ERBα LBD (human; residues 281-614 Δ324-422) (Homo sapiens, UniProt P20393, DEL324-422).
T1 construct: 6×Histag-REV-ERBα LBD (human; residues 281-614 Δ324-422); made in house; host or cells: Escherichia coli
T1 sequence (P20393 with tags, fused parts or gaps DEL324-422): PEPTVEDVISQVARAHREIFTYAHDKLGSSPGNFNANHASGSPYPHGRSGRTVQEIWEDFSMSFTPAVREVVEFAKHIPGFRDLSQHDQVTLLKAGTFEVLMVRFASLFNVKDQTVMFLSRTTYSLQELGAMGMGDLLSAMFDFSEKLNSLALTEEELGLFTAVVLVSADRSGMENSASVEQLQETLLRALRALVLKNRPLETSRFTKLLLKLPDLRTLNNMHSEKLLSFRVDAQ
T1 sequence (Q9Y618 2335-2356 partner limits assumed): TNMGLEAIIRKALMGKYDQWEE
Description: TR-FRET corepressor interaction assay (REV-ERBα LBD, FITC-SMRT peptide). Type of experiment: biochemical. Conditions: FITC-SMRT peptide, read-out: REVERBα agonism (EC50 class, FRET assay). The method in brief:
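Compound serial dilutions (in DMSO, triplicate) incubated 2 h at 4 °C; Tb donor excited at 340 nm, emission read at 495 nm and FITC acceptor at 520 nm. TR-FRET ratio (520/495 nm) plotted against ligand concentration and fitted to a sigmoidal dose-response curve.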
`CC(C)(C)Cn1cc([C@H](NS(=O)(=O)C2CCC2)C(F)(F)F)c2ccc(-c3ccccc3C(F)(F)F)nc21` [Example 492, N-[(1S)-1-[1-(2,2-dimethylpropyl)-6-[2-(trifluoromethyl)phenyl]pyrrolo[2,3-b]pyridin-3-yl]-2,2,2-trifluoro-ethyl]cyclobutanesulfonamide]: the 50% effective concentration (EC50) is less than 500 nM.

Turning to `N#Cc1cccc(F)c1-c1ccc2c([C@H](NS(=O)(=O)C3CCC3)C(F)(F)F)cn(C3CCC3)c2c1` [Example 520, (S)—N-(1-(6-(2-cyano-6-fluorophenyl)-1-cyclobutyl-1H-indol-3-yl)-2,2,2-trifluoroethyl)cyclobutanesulfonamide], the concentration giving a half-maximal response (EC50) is less than 500 nM.

For the compound `CC(NS(=O)(=O)C1CC1)c1cn(CC(C)(C)C)c2cc(-c3ccccc3C(F)(F)F)c(F)cc12` (stereo not shown) [Example 423, N-(1-(5-fluoro-1-neopentyl-6-(2-(trifluoromethyl)phenyl)-1H-indol-3-yl)ethyl)cyclopropanesulfonamide], the concentration for a half-maximal effect (EC50) is less than 500 nM.

On to `CC(C)(C)Cn1cc([C@H](NS(=O)(=O)C2CCC2)C(F)(F)F)c2cc(F)c(-c3c(F)cccc3C(F)(F)F)cc21` [Example 511, N-((1S)-2,2,2-trifluoro-1-(5-fluoro-6-(2-fluoro-6-(trifluoromethyl)phenyl)-1-neopentyl-1H-indol-3-yl)ethyl)cyclobutanesulfonamide], for which the EC50 was 500 to 3000 nM.

Take `CC(C)(C)Cn1cc([C@H](NS(=O)(=O)C2CCC2)C(F)(F)F)c2ccc(-c3c(F)cccc3C(F)(F)F)cc21` [Example 496, (S)—N-(2,2,2-trifluoro-1-(6-(2-fluoro-6-(trifluoromethyl)phenyl)-1-neopentyl-1H-indol-3-yl)ethyl)cyclobutanesulfonamide]: the EC50 was less than 500 nM.

As to `CC(C)(C)Cn1cc([C@H](NS(=O)(=O)C2CC(O)C2)C(F)(F)F)c2ccc(-c3ccccc3C(F)(F)F)cc21` (stereo partly drawn) [Example 522, (S)-3-hydroxy-N-(2,2,2-trifluoro-1-(1-neopentyl-6-(2-(trifluoromethyl)phenyl)-1H-indol-3-yl)ethyl)cyclobutane-1-sulfonamide], the half-maximal effective concentration (EC50) is 500 to 3000 nM.

On to `CC(C)(C)Cn1cc([C@H](NS(=O)(=O)C2CCC2)C(F)(F)F)c2ccc(-c3ccc(F)cc3C(F)(F)F)cc21` [Example 497, (S)—N-(2,2,2-trifluoro-1-(6-(4-fluoro-2-(trifluoromethyl)phenyl)-1-neopentyl-1H-indol-3-yl)ethyl)cyclobutanesulfonamide], for which the EC50 was less than 500 nM.

`CC(C)(C)Cn1cc([C@H](NS(=O)(=O)C2CC2)C(F)(F)F)c2ccc(-c3c(F)cccc3C#N)cc21` [Example 460, (S)—N-(1-(6-(2-cyano-6-fluorophenyl)-1-neopentyl-1H-indol-3-yl)-2,2,2-trifluoroethyl)cyclopropanesulfonamide]: the EC50 is less than 500 nM.

On to `CC(C)(C)Cn1cc([C@H](NS(=O)(=O)C2CC2)C(F)(F)F)c2ccc(-c3cccnc3C#N)cc21` [Example 466, (S)—N-(1-(6-(2-cyanopyridin-3-yl)-1-neopentyl-1H-indol-3-yl)-2,2,2-trifluoroethyl)cyclopropanesulfonamide], for which the EC50 was less than 500 nM.

With `NC(=O)c1cccc(F)c1-c1ccc2c([C@H](NS(=O)(=O)C3CCC3)C(F)(F)F)cn(C3CCOCC3)c2c1` [Example 434, (S)-2-(3-(1-(cyclobutanesulfonamido)-2,2,2-trifluoroethyl)-1-(tetrahydro-2H-pyran-4-yl)-1H-indol-6-yl)-3-fluorobenzamide], the EC50 was more than 3000 nM.

As to `CC(C)(C)Cn1cc([C@H](NS(=O)(=O)C2CC2)C(F)(F)F)c2ccc(-c3ccccc3C(F)(F)F)c(F)c21` [Example 536, (S)—N-(2,2,2-trifluoro-1-(7-fluoro-1-neopentyl-6-(2-(trifluoromethyl)phenyl)-1H-indol-3-yl)ethyl)cyclopropanesulfonamide], the EC50 was less than 500 nM.

As for `CC(C)(C)Cn1cc([C@H](NS(=O)(=O)C2CCC2)C(F)(F)F)c2ccc(-c3ccccc3C#N)cc21` [Example 495, (S)—N-(1-(6-(2-cyanophenyl)-1-neopentyl-1H-indol-3-yl)-2,2,2-trifluoroethyl)cyclobutanesulfonamide], the EC50 is less than 500 nM.

Still in this experiment, the particulars now being: Table 2, read-out: REVERBα agonism (EC50 class, FRET assay).
Consider `CC(C)Cn1cc(CCN(C)S(=O)(=O)N(C)C)c2ccc(-c3ccncc3)cc21` [Compound 5], for which the EC50 is less than 500 nM.

As for `CN(C)S(=O)(=O)NCCc1cn(Cc2ccccc2F)c2cc(-c3ccncc3)ccc12` [Example 150, N-{2-[6-(pyridin-4-yl)-1-(2-fluorobenzyl)-1H-indol-3-yl]ethyl}-N,N-dimethylsulfuric diamide], the concentration for a half-maximal effect (EC50) was 500 to 3000 nM.

As to `CC(C)(C)Cn1cc([C@H](NS(=O)(=O)C2CC2)C(F)(F)F)c2cc(C(F)(F)F)c(-c3ccccc3C(F)(F)F)cc21` [Example 357, (S)—N-(2,2,2-trifluoro-1-(1-neopentyl-5-(trifluoromethyl)-6-(2-(trifluoromethyl)phenyl)-1H-indol-3-yl)ethyl)cyclopropanesulfonamide], the concentration for a half-maximal effect (EC50) was 500 to 3000 nM.

In the case of `Cc1cccc(Cl)c1-c1ccc2c([C@H](NS(=O)(=O)C3CC3)C(F)(F)F)cn(CC(C)(C)C)c2c1` [Example 388, (S)—N-(1-(6-(2-chloro-6-methylphenyl)-1-neopentyl-1H-indol-3-yl)-2,2,2-trifluoroethyl)cyclopropanesulfonamide], the EC50 was less than 500 nM.

On to `CN(C)S(=O)(=O)NCCc1cn(CC(C)(C)C)c2cc(Br)ccc12` [Example 165, ({2-[6-bromo-1-(2,2-dimethylpropyl)-1H-indol-3-yl]ethyl}sulfamoyl)dimethylamine], for which the EC50 was 500 to 3000 nM.

`CC(C)(C)Cc1cn(CCNS(=O)(=O)C2CC2)c2ccc(-c3cccc4ccccc34)cc12` [Example 209, N-(2-(5-(naphthalen-1-yl)-3-neopentyl-1H-indol-1-yl)ethyl)cyclopropane-sulfonamide]: the EC50 is less than 500 nM.

In the case of `CC(C)Cn1cc(CN(C)S(=O)(=O)N(C)C)c2ccc(-c3ccncc3)cc21` [Compound 246], the concentration giving a half-maximal response (EC50) is 500 to 3000 nM.

As for `CC(C)CC(=O)n1cc(CCNS(=O)(=O)N(C)C)c2ccc(-c3ccncc3)cc21` [Compound 155, 1-(3-{2-[(dimethylsulfamoyl)amino]ethyl}-6-(pyridin-4-yl)-1H-indol-1-yl)-3-methylbutan-1-one], the 50% effective concentration (EC50) lay within 500 to 3000 nM.

As for `CC(NS(=O)(=O)N(C)C)c1cn(C(=O)C(C)(C)C)c2cc(-c3ccncc3)ccc12` (stereo not shown) [Example 197, 1-(3-{1-[(dimethylsulfamoyl)amino]ethyl}-6-(pyridin-4-yl)-1H-indol-1-yl)-2,2-dimethylpropan-1-one], the EC50 was less than 500 nM.

In the case of `CC(C)(C)Cn1cc([C@H](NS(=O)(=O)C2CC2)C(F)(F)F)c2cc(F)c(C3CC3)cc21` [Example 327, (S)—N-(1-(6-cyclopropyl-5-fluoro-1-neopentyl-1H-indol-3-yl)-2,2,2-trifluoroethyl)cyclopropanesulfonamide], the 50% effective concentration (EC50) is less than 500 nM.

Turning to `Cc1cccc(C#N)c1-c1ccc2c([C@H](NS(=O)(=O)C3CC3)C(F)(F)F)cn(CC(C)(C)C)c2c1` [Example 390, (S)—N-(1-(6-(2-cyano-6-methylphenyl)-1-neopentyl-1H-indol-3-yl)-2,2,2-trifluoroethyl)cyclopropanesulfonamide], the 50% effective concentration (EC50) was less than 500 nM.

On to `CC(C)Cn1cc([C@H](NS(=O)(=O)C2CC2)C(F)(F)F)c2ccc(-c3ccccc3C(F)(F)F)cc21` [Example 410, (S)—N-(2,2,2-trifluoro-1-(1-isobutyl-6-(2-(trifluoromethyl)phenyl)-1H-indol-3-yl)ethyl)cyclopropanesulfonamide], for which the EC50 was less than 500 nM.

Take `CC(C)(C)Cc1cn(CCNS(=O)(=O)C2CC2)c2cc(F)c(-c3ccc(F)cc3C(F)(F)F)cc12` [Example 294]: the concentration giving a half-maximal response (EC50) was less than 500 nM.

Take `CC(C)Cn1cc(CCNS(=O)(=O)N(C)C)c2ccc(-c3cccc(C#N)c3)cc21` [Example 59, N-{2-[6-(3-cyanophenyl)-1-(2-methylpropyl)-1H-indol-3-yl]ethyl}-N,N-dimethylsulfuric diamide]: the 50% effective concentration (EC50) was less than 500 nM.

On to `CC(C)Cn1cc([C@H]2C[C@H]2NS(=O)(=O)C(C)C)c2ccc(-c3ccccc3)cc21` [Compound 259], for which the EC50 is more than 3000 nM.

On to `CN(C)S(=O)(=O)NCCc1cn(CCC(F)(F)F)c2cc(-c3ccncc3)ccc12` [Example 179, dimethyl({2-[6-(pyridin-4-yl)-1-(3,3,3-trifluoropropyl)-1H-indol-3-yl]ethyl}sulfamoyl)amine], for which the EC50 was less than 500 nM.

Consider `CC(C)Cn1cc(CCNS(=O)(=O)N(C)C)c2ccc(-c3ccccc3OCc3ccccc3)cc21` [Example 77, N-{2-[6-(2-benzyloxylphenyl)-1-(2-methylpropyl)-1H-indol-3-yl]ethyl}-N,N-dimethyl-sulfuric diamide], for which the EC50 lay within 500 to 3000 nM.

In the case of `CC(C)Cn1cc(CCNS(=O)(=O)N(C)C)c2ccc(-n3cccn3)cc21` [Example 92, N-{2-[6-(1H-pyrazol-1-yl)-1-(2-methylpropyl)-1H-indol-3-yl]ethyl}-N,N-dimethylsulfuric diamide], the EC50 lay within 500 to 3000 nM.

In the case of `CC(C)Cn1cc(C(CS(C)(=O)=O)C(F)(F)F)c2ccc(-c3ccccc3C(F)(F)F)cc21` (stereo not shown) [Example 407, 1-isobutyl-3-(1,1,1-trifluoro-3-(methylsulfonyl)propan-2-yl)-6-(2-(trifluoromethyl)phenyl)-1H-indole], the EC50 is more than 3000 nM.

For `CC(C)S(=O)(=O)NCCc1cn(CCC(C)(C)C)c2cc(-c3ccncc3)ccc12` [Compound 270], the EC50 is less than 500 nM.

Take `CC(C)Cc1cn(CCN(C)S(=O)(=O)C2CC2)c2ncc(-c3ccncc3)cc12` [Example 126, N-(2-(3-isobutyl-5-(pyridin-4-yl)-1H-pyrrolo[2,3-b]pyridin-1-yl)ethyl)-N-methylcyclopropanesulfonamide]: the EC50 lay within 500 to 3000 nM.

Take `CC(C)Cn1cc(CCNS(C)(=O)=O)c2ccc(-c3ccncc3)cc21` [Compound 3]: the concentration giving a half-maximal response (EC50) was 500 to 3000 nM.
